Measurements from BindingDB's records for doi:10.1021/acschembio.5b01018 (Stony Brook University, 2016).

Target: T1, Tyrosine-protein kinase ABL1 [229-512] (Homo sapiens, UniProt P00519)
T1 construct: 229-512
T1 sequence (P00519 whole entry): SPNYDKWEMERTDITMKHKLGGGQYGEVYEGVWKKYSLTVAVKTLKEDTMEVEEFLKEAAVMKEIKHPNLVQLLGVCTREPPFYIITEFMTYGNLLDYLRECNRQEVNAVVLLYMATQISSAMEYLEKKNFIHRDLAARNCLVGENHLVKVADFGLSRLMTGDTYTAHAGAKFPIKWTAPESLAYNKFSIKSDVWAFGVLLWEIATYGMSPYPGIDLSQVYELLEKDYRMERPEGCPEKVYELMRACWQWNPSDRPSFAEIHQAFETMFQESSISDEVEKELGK
Assay: Kinome-Wide Inhibitor Profiling for Phosphorylated c-Abl
Experimental: Inhibitor selectivity profiles were obtained through Luceome Biotechnologies (Tuscon, AZ). Each inhibitor was screened at 0.5 μM against phosphorylated c-Abl.

**Q.** For `Cc1nc(Nc2ncc(C(=O)Nc3cccc(NC(=O)c4cccc(C(F)(F)F)c4)c3)s2)cc(N2CCN(CCO)CC2)n1` [DAS-DFGO-I], which Kd is on record?
**A.** Its Kd is 1.8 nM.

**Q.** `Cc1nc(Nc2ncc(C(=O)Nc3cc(NC(=O)c4cccc(C(F)(F)F)c4)ccc3C)s2)cc(N2CCN(CCO)CC2)n1` [DAS-DFGO-II] was tested. Which Kd did it give?
**A.** Its Kd is 2 nM.
